Test results reported in patent US20110044938A1 (NYCOMED GMBH, priority 2006, published 2011).

How the values were obtained:
[1] = tested on: RKO (RKOp27) human colon adenocarcinoma cells; assay: Alamar Blue cell viability assay, anti-proliferative/cytotoxic activity on proliferating RKO subclones; format: cell-based; conditions: RKOp27, 72 h, RKO p27 uninduced (proliferating) cells, value = class bound given in Table A, read-out: −logIC50 RKO p27 uninduced (proliferating) (converted)
Method in brief: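 RKOp27 subclones (5000 cells/well) were exposed 24 h after seeding to semi-log compound dilutions in DMEM with 10% FCS, in quadruplicate, for 72 h at 37 °C. Viability was read by Alamar Blue fluorescence (544/590 nm) relative to untreated cells (1% DMSO medium). IC50 came from concentration-effect curves and is reported as −log IC50 [mol/l].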

[2] = tested on: subclones of RKO colon adenocarcinoma cells (RKOp27 or RKOp21) arrested by Ponasterone A; assay: Alamar Blue cell viability assay, cell cycle specific mode of action: cells arrested by ectopic p27Kip1 induced by Ponasterone A versus proliferating cells; format: cell-based; conditions: Homo sapiens, RKO p27 induced (arrested) cells, 10 μM Ponasterone A, 72 hours, value = class bound given in Table A, read-out: −logIC50 RKO p27 induced (arrested) (converted)
Method in brief: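 RKOp27 or RKOp21 cells, 15000/well in DMEM/10% FCS, either arrested by p27Kip1 induced with 10 μM Ponasterone A or proliferating without inducer; compound added after 24 h, 72 h at 37° C. Alamar Blue fluorescence (544/590 nm), viability as % of untreated cells; −log IC50 reported.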

Row | IC50 [2] | SMILES | IC50 [1]
1 | ≥ 100 µM | COc1cccc(C(C)CC(=O)Nc2sc3c(c2C#N)CCC(OC(=O)NCc2cnn(C)c2)C3)c1 (centres unmarked) [Example 274, (1-Methyl-1H-pyrazol-4-ylmethyl)-carbamic acid 3-cyano-2-[3-(3-methoxy-phenyl)-butanoylamino]-4,5,6,7-tetrahydro-benzo[b] thiophen-6-yl ester] | 501 to 2000 nM
2 | ≥ 10 µM | CC(CC(=O)Nc1sc2c(c1C#N)CCC(COC(=O)NCc1cncn1C)C2)c1ccccc1 (centres unmarked) [Example 312, (3-Methyl-3H-imidazol-4-ylmethyl)-carbamic acid 3-cyano-2-(3-phenyl-butanoylamino)-4,5,6,7-tetrahydro-benzo[b] thiophen-6-ylmethyl ester] | ≤ 501 nM
3 | ≥ 50.1 µM | COc1cccc(CCC(=O)Nc2sc3c(c2C#N)CCC(OC(=O)Nc2cccnc2)C3)c1 (centres unmarked) [Example 264, Pyridin-3-yl-carbamic acid 3-cyano-2-[3-(3-methoxy-phenyl)-propanoylamino]-4,5,6,7-tetrahydro-benzo[b]thiophen-6-yl ester] | 501 to 2000 nM
4 | ≥ 10 µM | COc1cccc(C(C)CC(=O)Nc2sc3c(c2C#N)CCC(COC(=O)NCc2nccn2C)C3)c1 (centres unmarked) [Example 330, (1-Methyl-1H-imidazol-2-ylmethyl)-carbamic acid 3-cyano-2-[3-(3-methoxy-phenyl)-butanoylamino]-4,5,6,7-tetrahydro-benzo[b] thiophen-6-ylmethyl ester] | 501 to 2000 nM
5 | ≥ 100 µM | Cc1oncc1CNC(=O)OC1CCc2c(sc(NC(=O)CC(C)c3ccccc3)c2C#N)C1 (centres unmarked) [Example 358, (5-Methyl-isoxazol-4-ylmethyl)-carbamic acid 3-cyano-2-(3-phenyl-butanoylamino)-4,5,6,7-tetrahydro-benzo[b]thiophen-6-yl ester] | ≤ 501 nM
6 | ≥ 100 µM | COc1cccc(CCC(=O)Nc2sc3c(c2C#N)CCC(COC(=O)N2CCOCC2)C3)c1 (centres unmarked) [Example 245, Morpholine-4-carboxylic acid 3-cyano-2-[3-(3-methoxy-phenyl)-propanoylamino]-4,5,6,7-tetrahydro-benzo[b]thiophen-6-ylmethyl ester] | ≤ 501 nM
7 | ≥ 10 µM | CC(CC(=O)Nc1sc2c(c1C#N)CCC(COC(=O)NCc1nccn1C)C2)c1ccccc1 (centres unmarked) [Example 311, (1-Methyl-1H-imidazol-2-ylmethyl)-carbamic acid 3-cyano-2-(3-phenyl-butanoylamino)-4,5,6,7-tetrahydro-benzo[b] thiophen-6-ylmethyl ester] | ≤ 501 nM
8 | ≥ 100 µM | COc1cccc(C(C)CC(=O)Nc2sc3c(c2C#N)CCC(OC(=O)NCc2ccncc2)C3)c1 (centres unmarked) [Example 269, Pyridin-4-ylmethyl-carbamic acid 3-cyano-2-[3-(3-methoxy-phenyl)-butanoylamino]-4,5,6,7-tetrahydro-benzo[b]thiophen-6-yl ester] | 501 to 2000 nM
9 | ≥ 100 µM | COc1cccc(C(C)CC(=O)Nc2sc3c(c2C#N)CCC(OC(=O)NCc2cncn2C)C3)c1 (centres unmarked) [Example 272, (3-Methyl-3H-imidazol-4-ylmethyl)-carbamic acid 3-cyano-2-[3-(3-methoxy-phenyl)-butanoylamino]-4,5,6,7-tetrahydro-benzo[b]thiophen-6-yl ester] | 501 to 2000 nM
10 | ≥ 10 µM | Cc1nn(C)cc1CNC(=O)OCC1CCc2c(sc(NC(=O)CC(C)c3ccccc3)c2C#N)C1 (centres unmarked) [Example 320, (1,3-Dimethyl-1H-pyrazol-4-ylmethyl)-carbamic acid 3-cyano-2-(3-phenyl-butanoylamino)-4,5,6,7-tetrahydro-benzo[b]thiophen-6-ylmethyl ester] | ≤ 501 nM

The next lines start with the compound.

Row | SMILES | IC50 [2] | IC50 [1]
11 | CCOc1ccccc1CCC(=O)Nc1sc2c(c1C#N)CCC(COC(=O)OCc1cncs1)C2 (centres unmarked) [Example 215, Carbonic acid 3-cyano-2-[3-(2-ethoxy-phenyl)-propanoylamino]-4,5,6,7-tetrahydro-benzo[b]thiophen-6-ylmethyl ester thiazol-5-ylmethyl ester] | ≥ 100 µM | ≤ 501 nM
12 | CCOc1ccccc1CCC(=O)Nc1sc2c(c1C#N)CCC(COC(=O)NCCn1ccnc1)C2 (centres unmarked) [Example 164, (2-Imidazol-1-yl-ethyl)-carbamic acid 3-cyano-2-[3-(2-ethoxy-phenyl)-propanoylamino]-4,5,6,7-tetrahydro-benzo[b]thiophen-6-ylmethyl ester] | ≥ 10 µM | ≤ 501 nM
13 | CCOc1ccccc1CCC(=O)Nc1sc2c(c1C#N)CCC(COC(=O)NCc1nnc(C)o1)C2 (centres unmarked) [Example 200, (5-Methyl-[1,3,4]oxadiazol-2-ylmethyl)-carbamic acid 3-cyano-2-[3-(2-ethoxy-phenyl)-propanoylamino]-4,5,6,7-tetrahydro-benzo[b]thiophen-6-ylmethyl ester] | ≥ 100 µM | 501 to 2000 nM
14 | CCOc1ccccc1CCC(=O)Nc1sc2c(c1C#N)CCC(COC(=O)NCc1cnoc1C)C2 (centres unmarked) [Example 212, (5-Methyl-isoxazol-4-ylmethyl)-carbamic acid 3-cyano-2-[3-(2-ethoxy-phenyl)-propanoylamino]-4,5,6,7-tetrahydro-benzo[b]thiophen-6-ylmethyl ester] | ≥ 100 µM | ≤ 501 nM
15 | N#Cc1c(NC(=O)/C=C/c2cccnc2)sc2c1CCC(COC(=O)N[C@H]1CC[C@H](O)CC1)C2 (stereo partly drawn) [Example 100, trans-4-Hydroxycyclohexyl-carbamic acid 3-cyano-2-((E)-3-pyridin-3-yl-allanoylamino)-4,5,6,7-tetrahydro-benzo[b]thiophen-6-ylmethyl ester] | ≥ 100 µM | 501 to 2000 nM
16 | CCN(C)C(=O)OC1CCc2c(sc(NC(=O)/C=C/c3cccnc3)c2C#N)C1 (centres unmarked) [Example 91, Ethyl-methyl-carbamic acid 3-cyano-2-((E)-3-pyridin-3-yl-allanoylamino)-4,5,6,7-tetrahydro-benzo[b]thiophen-6-yl ester] | ≥ 100 µM | ≤ 501 nM
17 | COc1cccc(CCC(=O)Nc2sc3c(c2C#N)CCC(OC(=O)NCc2ccnn2C)C3)c1 (centres unmarked) [Example 221, (2-Methyl-2H-pyrazol-3-ylmethyl)-carbamic acid 3-cyano-2-[3-(3-methoxy-phenyl)-propanoylamino]-4,5,6,7-tetrahydro-benzo[b]thiophen-6-yl ester] | ≥ 100 µM | ≤ 501 nM
18 | COc1cccc(CCC(=O)Nc2sc3c(c2C#N)CCC(OC(=O)OCc2cccnc2)C3)c1 (centres unmarked) [Example 219, Carbonic acid 3-cyano-2-[3-(3-methoxy-phenyl)-propanoylamino]-4,5,6,7-tetrahydro-benzo[b]thiophen-6-yl ester pyridin-3-ylmethyl ester] | ≥ 100 µM | 501 to 2000 nM
19 | CN(C)c1ncc(CNC(=O)OCC2CCc3c(sc(NC(=O)/C=C/c4cccnc4)c3C#N)C2)s1 (centres unmarked) [Example 140, (2-Dimethyl-amino-thiazol-5-ylmethyl)-carbamic acid 3-cyano-2-((E)-3-pyridin-3-yl-allanoylamino)-4,5,6,7-tetrahydro-benzo[b]thiophen-6-ylmethyl ester] | ≥ 100 µM | ≤ 501 nM
20 | N#Cc1c(NC(=O)/C=C/c2cccnc2)sc2c1CCC(OC(=O)N[C@H]1CC[C@@H](O)CC1)C2 (stereo partly drawn) [Example 128, cis-4-Hydroxycyclohexyl-carbamic acid 3-cyano-2-((E)-3-pyridin-3-yl-allanoylamino)-4,5,6,7-tetrahydro-benzo[b]thiophen-6-yl ester] | ≥ 100 µM | 501 to 2000 nM
21 | COC(=O)[C@@H]1CCCN1C(=O)OCC1CCc2c(sc(NC(=O)/C=C/c3cccnc3)c2C#N)C1 (stereo partly drawn) [Example 136, 2-(S)-Pyrrolidine-1,2-dicarboxylic acid 1-[3-cyano-2-((E)-3-pyridin-3-yl-allanoylamino)-4,5,6,7-tetrahydro-benzo[b]thiophen-6-ylmethyl] ester 2-methyl ester] | ≥ 100 µM | 501 to 2000 nM
22 | N#Cc1c(NC(=O)/C=C/c2cccnc2)sc2c1CCC(OC(=O)N1CC[C@@H](O)[C@@H](O)C1)C2 (stereo partly drawn) [Example 125, cis-3-, 4-Dihydroxy-piperidine-1-carboxylic acid 3-cyano-2-((E)-3-pyridin-3-yl-allanoylamino)-4,5,6,7-tetrahydro-benzo[b]thiophen-6-yl ester] | ≥ 100 µM | 501 to 2000 nM
23 | CCOC(=O)OC1CCc2c(sc(NC(=O)CCc3cccnc3)c2C#N)C1 (centres unmarked) [Example 158, Carbonic acid 3-cyano-2-(3-pyridin-3-yl-propanoylamino)-4,5,6,7-tetrahydro-benzo[b]thiophen-6-yl ester ethyl ester] | ≥ 100 µM | 501 to 2000 nM
24 | CCOc1ccccc1CCC(=O)Nc1sc2c(c1C#N)CCC(COC(=O)NCc1nccn1C)C2 (centres unmarked) [Example 183, (1-Methyl-1H-imidazol-2-ylmethyl)-carbamic acid 3-cyano-2-[3-(2-ethoxy-phenyl)-propanoylamino]-4,5,6,7-tetrahydro-benzo[b]thiophen-6-ylmethyl ester] | ≥ 50.1 µM | ≤ 501 nM
25 | N#Cc1c(NC(=O)/C=C/c2cccnc2)sc2c1CCC(OC(=O)N1CC(F)C1)C2 (centres unmarked) [Example 124, 3-Fluoro-azetidine-1-carboxylic acid 3-cyano-2-((E)-3-pyridin-3-yl-allanoylamino)-4,5,6,7-tetrahydro-benzo[b]thiophen-6-yl ester] | ≥ 100 µM | ≤ 501 nM
